According to patent publication US11759477B2, “Compositions of nitrates and methods of use thereof” (Heartbeet Ltd., priority 2007, dated 2023):

What was measured:
[1] = assay type: in vivo, human
[2] = Blood pressure at rest after dietary sodium nitrate supplementation; assay type: in vivo, human; settings: 0.1 mmol/kg body weight/day oral, 3 days, mean±SD, n=9
Method: Subjects: Nine healthy, well trained (VO2peak 55±3.7 ml×kg-1×min-1), males (28±6 years) volunteered for the study. All subjects were trained cyclists or triathletes and well accustomed to the testing procedure. It was chosen to use well-trained subjects to avoid training effects from the tests such as enhanced VO2peak or better mechanical efficiency during submaximal exercise. The protocol was approved by the regional ethics committee in Stockholm and all subjects gave their written consent prior to participation.
Dietary supplementation with nitrate: The aim with the present study was to investigate the effects of two distinct dietary patterns, one with higher, and one with lower than normal nitrate intake. […] During two three-day periods, separated by a washout interval of ten days, the subjects were instructed to avoid all foods with moderate or high nitrate content (all vegetables, all cured meats, strawberries, grapes, and tea). In addition, they were told to restrain from alcohol and tobacco products. Otherwise they were free to eat any food they liked during the three days of restricted diet. The subjects were randomized to start with either ingestion of 0.1 mmol sodium nitrate/kg body weight/day dissolved in water or an equal amount of sodium chloride (placebo). The daily dose was divided and ingested three times daily. The different solutions could not be distinguished by taste or appearance. The daily nitrate dose corresponded to the amount normally found in 150-250 gram of a nitrate-rich vegetable such as spinach, lettuce or beetroot. The last dose of nitrate or placebo was ingested in the morning on the day of measurement (see the main tests below). The order between the nitrate supplementation period (NIT) and the placebo period (CON) was balanced.
The main tests: The subjects refrained from heavy exercise three days prior to the main tests and avoided all exercise the day before the tests. They were also told to eat their last light meal at least 3 hours before the start of the tests. […]

[3] = Oral Glucose Tolerance Test after nitrate pre-treatment (n=3); assay type: in vivo, human; settings: 75 g glucose, 60 min after nitrate 1 mmol/kg body weight NaNO3, n=3; placebo 8.2
Method: FIGS. 7a-7c consist of three graphs, showing changes in blood glucose levels after an oral challenge with glucose for three test subjects in a double-blind, placebo-controlled cross-over study (FIGS. 7a, 7b and 7c). A standard oral glucose tolerance test was performed. The subjects (healthy non-smoking volunteers) had their diet supplemented for 3 days with either sodium chloride (placebo) or sodium nitrate (Nitrate) at a dose of 0.1 mmol/kg body weight/day.
The increase in plasma glucose after a standard Oral Glucose Tolerance Test (75 g glucose in 250 ml water) is lower when measured after nitrate pre-treatment (1 mmol/kg body weight NaNO3) compared to placebo (NaCl). The study was performed with three healthy test subjects in a double-blind study. Glucose ingestion started 60 min after the nitrate ingestion. Blood glucose levels were measured during the 120 min period after the glucose load (n=3). At 30 min mean plasma glucose was 8.2 mmol/l with placebo and in the same subjects 6.5 mmol/l after nitrate supplementation.

[4] = Oral Glucose Tolerance Test after three-day sodium nitrate supplementation (n=8); assay type: in vivo, human; settings: 75 g glucose, 0.1 mmol/kg body weight/day for three days
Method: FIG. 8 is a graph showing changes in blood glucose levels after an oral challenge with glucose in 8 additional subjects in a double-blind, placebo-controlled cross-over study. A standard oral glucose tolerance test was performed. The subjects (healthy non-smoking volunteers) had their diet supplemented for 3 days with either sodium chloride (PLACEBO) or sodium nitrate (NITRATE) at a dose of 0.1 mmol/kg/day. Data are presented as mean±SEM.
The lower increase in plasma glucose after nitrate pre-treatment was verified in a further study wherein a standard Oral Glucos Tolerance Test (75 g glucose) was performed in 8 healthy non-smoking subjects after a three-day supplementation with either sodium chloride or sodium nitrate at equal molar amounts (0.1 mmol/kg body weight/day). […] Blood glucose levels were measured at two time points before (−10 and 0 min) and at 15, 30, 45, 60, 75, 90, 105 and 120 min after glucose intake (n=8). At the occasion when the subjects had taken nitrate, the area under the curve for blood glucose was smaller compared to when they had ingested placebo.

[5] = Plasma nitrite after intraperitoneal nitrate in wild type, germ free and eNOS knockout mice; assay type: in vivo; settings: 10 mg/kg ip, 1 hour later
Method: Three different strains of mice—wild type (n=5 placebo, n=5 nitrate), germ free (n=5 placebo, n=5 nitrate) and eNOS knockout mice (n=2 placebo, n=3 nitrate), were given an intra peritoneal injection of 10 mg/kg body weight nitrate or placebo (NaCl) and plasma level of nitrite measured 1 hour later.

[6] = Post-ischemic abdominal aortic blood flow after nitrate infusion; assay type: in vivo; settings: rats, 10 mg/kg iv bolus + 3 mg/kg/h
Method: Rats received an intravenous bolus dose of 10 mg/kg nitrate (NaNO3, n=4) or placebo (NaCl, n=4)) diluted in PBS (pH 7.4) followed by continuous infusion of 3 mg/kg body weight/h. An hour after the addition of nitrate (open boxes) or placebo (filled circles), L-NAME (50 mg/kg) was given, and 10 minutes later, a supra renal clamping of the abdominal aorta was performed. After 30 minutes of ischemia the clamp was removed and the abdominal aortic blood flow was monitored during 60 minutes.

[7] = not given; remark: listed apart in the source
[8] = remark: listed apart in the source
Method: FIG. 2 is a graph showing changes in oxygen consumption (VO2) following iv infusion of sodium nitrite in increasing doses. Nitrite was infused over a 10 min period in non-smoking healthy male volunteers (30-70 years).
The present inventors have been studying the effects of nitrate and nitrite on various physiological functions including blood pressure, glucose metabolism and energy expenditure in vivo. In the examples below, unless otherwise noted, nitrate was administered perorally and nitrite was administered intravenously (iv). Oxygen consumption was measured using indirect calorimetry.
(§1) Prior to the test the subjects had been on a diet low in nitrate for one day and had been fasting for at least 8 h.

clinical = experiment: clinical
Method: as §1

[9] = anesthetized rats, 10 mg/kg bolus NaNO3

In the case of O=[N+]([O-])[O-].[Na+] [sodium nitrate], the “Average lowering of VO2 vs CON over the 4 submaximal work rates” value ([1]; 45-80% VO2peak) is reported as 0.15 L/min, the “VE, VE/VO2 or respiratory exchange ratio (RER), NIT vs CON” value ([1]; any of the submaximal work rates) is reported as “No significant differences” and the “Rating of perceived exertion (Borg RPE-scale), NIT vs CON” value ([1]; any work load (submax or max)) is reported as “no difference”. For the same compound, the “Gross efficiency (GE)” value ([1]; average, p=0.02 vs CON) was 21.1%, the “Delta efficiency (DE)” value ([1]; four lowest work rates, linear regression, p=0.04 vs CON) was 22.9±1.9% and the “[Hla] (plasma lactate), NIT vs CON” value ([1]; in vivo) was “No significant differences”. The VO2peak ([1]; maximal work, no significant difference, p=0.29) was 4.49 ± 0.44 L/min, the Maximal work rate ([1]; maximal work, p=0.35) was 360.6±32.8 watt and the VEmax ([1]; maximal work, p=0.5) was 182 ± 21.4 L/min. For the same compound, the HRmax ([1]; maximal work, p=0.94) was 189.8±7.0 beats×min-1, the “Heart rate (HR), NIT vs CON” value ([1]; submaximal work) was “no difference” and the “VO2 during the four work rates corresponding to 45-80% VO2peak, vs placebo period” value ([1]; submaximal work) was “significantly lower”. For the same compound, the “VO2 at 80% of VO2peak” value ([1]; submaximal work, 0.1 mmol/kg/day oral, 3 days, p=0.003 vs CON) was 3.44 ± 0.31 L/min, the Oxygen pulse ([1]; submaximal work, p=0.08 vs CON) was 20.3±1.9 ml×beat-1 and the “Average resting systolic blood pressure” value [2] was 112±8 mmHg. For the same compound, the “Resting diastolic blood pressure” value [2] was 68±5.5 mmHg, the “Average resting systolic blood pressure” value ([2]; listed as NIT) was 120+/−5.9 mmHg and the “Mean plasma glucose at 30 min” value [3] was 6.5 mmol/L. The “Area under the curve for blood glucose, vs placebo” value [4] was “smaller”, the “Nitrate-induced increase in plasma nitrite across wild type, germ free and eNOS knockout mice” value [5] was “equal” and the “Post-ischemic blood flow in early (0-10 minutes) and late (10-60 minutes) phase, vs placebo” value [6] was “higher blood flow”. For the same compound, the “Abdominal aortic blood flow after 60 min of reperfusion” value ([6]; L-NAME, 30 min ischemia, control rats 20% of pre-ischemic values) was ~75 % of control values, the “Plasma nitrate levels immediately after the maximal work test” value (0.1 mmol/kg/day oral, 3 days, after maximal work test) was 175 ± 61 µM and the “Plasma levels of nitrate at rest” value (0.1 mmol/kg/day oral, 3 days, at rest) was 182000 ± 55000 nM. For the same compound, the “Decrease in nitrite concentrations during exercise, vs CON” value (compared with placebo period) was “more pronounced”, the “Plasma nitrite levels at rest” value (in vivo, po) was 226 ± 87 nM and the “Plasma nitrite levels immediately after the maximal work test” value (in vivo, po) was 137 ± 48 nM. For the same compound, the “Increase in c-GMP concentrations after the maximal work as compared to rest, vs CON” value (p=0.08) was “tended to be higher”, the “Change of plasma nitrate during exercise” value (p=0.8) was “did not change” and the “Concentration of plasma nitrate after infusion” value [7, 9] was “increases dramatically”. For the same compound, the “Plasma nitrite concentrations after infusion” value [7, 9] was “increased” and the “Increase in plasma nitrite, nitrate only vs nitrate+allopurinol” value ([7]; rats, p<0.05) was “significantly greater”.
For O=NO [sodium nitrite], the “Reduction of resting energy expenditure” value ([8]; after 10 min of iv infusion, n=4, major drop at 10 nmoles/kg body weight/min) was 10-25%, the “Effect on energy expenditure / oxygen consumption” value ([8]; iv 1 nmol/kg body weight/min, 10 min observation period) was “no obvious effects” and the “Oxygen consumption compared to the 10 nmol dose” value ([8]; iv 100 nmol/kg body weight/min) was “no further decrease in oxygen consumption”. The “Methemoglobin after infusion of nitrite” value (clinical; basal 1.1-1.3 mmol/l, did not change significantly) was 1.1 to 1.4 mmol/L and the concentration at 10 min (clinical; human, plasma, iv, 10 nmol/kg body weight/min) was 370 to 480 nM.
